Results reported in patent publication US20260130933A1, “PHARMACEUTICAL COMPOSITION FOR PREVENTION OR TREATMENT OF NEPHROPATHY AND/OR DIABETES MELLITUS, COMPRISING ENAVOGLIFLOZIN” (DAEWOONG PHARMACEUTICAL CO., LTD., priority 2022, published 2026).
Where “and” joins values, the source holds several entries; their conditions need not be identical. Equal entries are not always repeated.

Assay: Example 2: phase 3 trial, enavogliflozin 0.3 mg vs dapagliflozin 10 mg once a day for 24 weeks added to metformin in patients with type 2 diabetes (same efficacy, exploratory and safety endpoints)
Format: in vivo, human
Details: for Change from baseline in total cholesterol, ANCOVA LS mean difference / Change from baseline in Total cholesterol, ANCOVA LS mean (SE) / Change from baseline in Total cholesterol, Mean (SD) / Change from baseline in total cholesterol, Median / fasting Total cholesterol, Mean (SD) / fasting Total cholesterol, Median: modified per-protocol set 1
Protocol: Subjects who met the inclusion/exclusion criteria were administered a placebo of the clinical trial drug under single-blind (subject blinding) conditions during a 2-week run-in period while continuing to receive metformin. […] The randomized subjects were administered two tablets of the clinical trial drug for each administration group once a day, and then visited the institution at weeks 6, 12, 18, and 24 during the 24-week administration period to conduct efficacy and safety evaluations.
• 1. Change in HbA1c at week 24 after administration of clinical trial drug compared to Visit 2 (randomization)
• 1. Change in HbA1c at each time point of weeks 6, 12, and 18 after administration of clinical trial drug compared to Visit 2 (randomization) • 2. Change in FPG at each time point of weeks 6, 12, 18, and 24 after administration of clinical trial drug compared to Visit 2 (randomization) • 3. Proportion of subjects achieving HbA1c<7% at each time point of weeks 6, 12, 18, and 24 after administration of clinical trial drug • 4. Proportion of subjects achieving HbA1c<6.5% at each time point of weeks 6, 12, 18, and 24 after administration of clinical trial drug • 5. Proportion of subjects achieving therapeutic response (HbA1c change (HbA1c at Visit 2-HbA1c at each evaluation time point)>0.5% or HbA1c<7% at each evaluation time point compared to Visit 2 (randomization)) at each time point of weeks 6, 12, 18 and 24 after administration of clinical trial drug
• 1. Change in fasting c-peptide at each time point of weeks 6, 12, 18, and 24 after administration of clinical trial drug compared to Visit 2 (randomization) • 2. Change in body weight at each time point of weeks 6, 12, 18, and 24 after administration of clinical trial drug compared to Visit 2 (randomization) • 3. Change in fasting lipid concentration (total cholesterol, LDL-C, HDL-C, and triglycerides) at each time point of weeks 6, 12, 18, and 24 after administration of clinical trial drug compared to Visit 2 (randomization) • 4. Changes in systolic or diastolic blood pressure at each time point of weeks 6, 12, 18, and 24 after administration of clinical trial drug compared to Visit 2 (randomization) • 5. Changes in β-cell function and insulin resistance measured by HOMA-β and HOMA-IR at each time point of weeks 6, 12, 18, and 24 after administration of clinical trial drug compared to Visit 2 (randomization) • 6. Changes in renal function-related indicators (UACR, UGCR) measured by UACR at each time point of weeks 6, 12, 18, and 24 after administration of clinical trial drug compared to Visit 2 (randomization) • 7. Changes in obesity-related indicators (adiponectin, leptin) at each time point of weeks 6, 12, 18, and 24 after administration of clinical trial drug compared to Visit 2 (randomization)

[1] = week 12, per-protocol set, enavogliflozin 0.3 mg, dapagliflozin 10 mg
[2] = week 18, listed as enavogliflozin
[3] = week 18, enavogliflozin 0.3 mg, dapagliflozin 10 mg
[4] = week 18, per-protocol set, enavogliflozin 0.3 mg vs dapagliflozin 10 mg
[5] = week 18, per-protocol set, enavogliflozin 0.3 mg, dapagliflozin 10 mg
[6] = week 24, listed as enavogliflozin
[7] = week 24, enavogliflozin 0.3 mg, dapagliflozin 10 mg
[8] = week 24, per-protocol set, enavogliflozin 0.3 mg vs dapagliflozin 10 mg
[9] = week 24, per-protocol set, enavogliflozin 0.3 mg, dapagliflozin 10 mg

## OC[C@H]1O[C@@H](c2cc(Cc3ccc(C4CC4)cc3)c(Cl)c3c2CCO3)[C@H](O)[C@@H](O)[C@@H]1O [Enavogliflozin, (2S,3R,4R,5S,6R)-2-(7-chloro-6 (4-cyclopropylbenzyl)-2,3-dihydrobenzofuran-4-yl)-6-(hydroxymethyl)tetrahydro-2H-pyran-3,4,5-triol]
[1]
  FPG, Median: 115.50 mg/dL
  HbA1c, Mean (SD): 6.97%
  HbA1c, Median: 6.83%
  Subjects achieving HbA1c target of <6.5%, (%): (15.96) %
  Subjects achieving therapeutic glycemic response, (%): (88.30) %
  body weight, Mean (SD): 67.44(11.05) kg
  body weight, Median: 65.70 kg
  fasting c-peptide, Mean (SD): 0.65(0.28) ng/mL
  fasting c-peptide, Median: 0.61 ng/mL
Week 18
  FPG change from baseline, LS mean (SE): −33.44(1.60) mg/dL
  HOMA-IR change from baseline, LS mean (SE): −1.79(0.11)
  HOMA-β change from baseline, LS mean (SE): 10.97(3.06)
  HbA1c change from baseline, LS mean (SE): −0.74(0.06) % p
  LDL-C change from baseline, LS mean (SE): 1.42(1.86) mg/dL
  Subjects achieving HbA1c target of <7%: (62.64) %
  Subjects achieving HbA1c<6.5%: 9.89%
  Subjects achieving therapeutic response (HbA1c change >0.5% or HbA1c<7%): 80.22%
  UACR change from baseline, LS mean (SE): −23.05(5.06) g/kg
  diastolic blood pressure change from baseline, LS mean (SE): −4.80(0.78) mmHg
  fasting c-peptide change from baseline, LS mean (SE): −0.07(0.18) ng/ml
  leptin change from baseline, LS mean (SE): −2.49(0.52) ng/mL
  systolic blood pressure change from baseline, LS mean (SE): -6.69 mmHg
Week 18, vs dapagliflozin
  FPG change from baseline, LS mean difference: -2.31 mg/dL
  HDL-C change from baseline, LS mean difference: -0.62 mg/dL
  HOMA-IR change from baseline, LS mean difference: −0.32
  HOMA-β change from baseline, LS mean difference: −2.53
  HbA1c change from baseline, LS mean difference: −0.05 % p
  LDL-C change from baseline, LS mean difference: -1.15 mg/dL
  Odds ratio for achieving HbA1c<6.5%: 0.31
  Odds ratio for achieving HbA1c<7%: 1.29
  Odds ratio for achieving therapeutic response: 1.58
  UACR change from baseline, LS mean difference: −10.10
  UGCR change from baseline, LS mean difference: 18.25 mg/mg
  body weight change from baseline, LS mean difference: 0.02 kg
  diastolic blood pressure change from baseline, LS mean difference: −0.70 mmHg
  fasting c-peptide change from baseline, LS mean difference: -0.02 ng/mL
  leptin change from baseline, LS mean difference: -1.26 ng/mL
  systolic blood pressure change from baseline, LS mean difference: −0.72 mmHg
  total cholesterol change from baseline, LS mean difference: -1.77 mg/dL
  triglyceride change from baseline, LS mean difference: -6.87 mg/dL
[2]
  Subjects achieving HbA1c target of <7%: 62.64%
  UGCR change from baseline, LS mean (SE): 60.97(2.13) mg/mg and 42.72(2.15) mg/mg
Week 18, enavogliflozin 0.3 mg vs dapagliflozin 10 mg
  Change from baseline in total cholesterol, ANCOVA LS mean difference: -1.77 mg/dL
[3]
  Change from baseline in Total cholesterol, ANCOVA LS mean (SE): 7.80(2.16) mg/dL
  Change from baseline in Total cholesterol, Mean (SD): 6.23(16.54) mg/dL
  Change from baseline in total cholesterol, Median: 6.00 mg/dL
  fasting Total cholesterol, Mean (SD): 156.99(32.54) mg/dL
  fasting Total cholesterol, Median: 149.00 mg/dL
[4]
  Change from baseline in FPG, ANCOVA LS mean difference: -2.31 mg/dL
  Change from baseline in HbA1c, ANCOVA LS mean difference: −0.05 % p
  Change from baseline in body weight, ANCOVA LS mean difference: 0.02 kg
  Change from baseline in fasting c-peptide, ANCOVA LS mean difference: -0.02 ng/mL
  Odds ratio for achieving HbA1c target of <6.5%, logistic regression model: 0.31
  Odds ratio for achieving therapeutic glycemic response, logistic regression model: 1.58
[5]
  Change from baseline in FPG, ANCOVA LS mean (SE): -33.44 mg/dL
  Change from baseline in FPG, Mean (SD): -31.78 mg/dL
  Change from baseline in FPG, Median: -31.00 mg/dL
  Change from baseline in HbA1c, ANCOVA LS mean (SE): −0.74 % p
  Change from baseline in HbA1c, Mean (SD): −0.71 % p
  Change from baseline in HbA1c, Median: −0.56 % p
  Change from baseline in body weight, ANCOVA LS mean (SE): −3.14(0.26) kg
  Change from baseline in body weight, Mean (SD): −3.17(2.68) kg
  Change from baseline in body weight, Median: -3.20 kg
  Change from baseline in fasting c-peptide, ANCOVA LS mean (SE): −0.08(0.02) ng/mL
  Change from baseline in fasting c-peptide, Mean (SD): −0.07(0.18) ng/mL
  Change from baseline in fasting c-peptide, Median: -0.07 ng/mL
  FPG, Mean (SD): 112.95 mg/dL
  FPG, Median: 113.00 mg/dL
  HbA1c, Mean (SD): 7.02%
  HbA1c, Median: 6.89%
  Subjects achieving HbA1c target of <6.5%, (%): (9.89) %
  Subjects achieving therapeutic glycemic response, (%): (80.22) %
  body weight, Mean (SD): 66.72(11.26) kg
  body weight, Median: 64.30 kg
  fasting c-peptide, Mean (SD): 0.65(0.24) ng/mL
  fasting c-peptide, Median: 0.61 ng/mL
Week 24
  FPG change from baseline, LS mean (SE): −32.53(1.76) mg/dL
  HOMA-IR change from baseline, LS mean (SE): −1.85(0.13)
  HOMA-β change from baseline, LS mean (SE): 6.94(3.17)
  HbA1c change from baseline, LS mean (SE): −0.80 % p
  HbA1c change from baseline, Mean (SD): −0.78 % p
  HbA1c, Mean: 6.98%
  LDL-C change from baseline, LS mean (SE): 1.64(1.92) mg/dL
  Subjects achieving HbA1c target of <7%: (61.05) %
  Subjects achieving HbA1c<6.5%: 13.68%
  Subjects achieving therapeutic response (HbA1c change >0.5% or HbA1c<7%): 78.95%
  UACR change from baseline, LS mean (SE): −24.29(3.38) g/kg
  UGCR change from baseline, LS mean (SE): 60.48(2.12) mg/mg
  diastolic blood pressure change from baseline, LS mean (SE): −5.41(0.65) mmHg
  fasting c-peptide change from baseline, LS mean (SE): −0.10(0.16) ng/ml
  leptin change from baseline, LS mean (SE): −2.40(0.51) ng/mL
Week 24, vs dapagliflozin
  FPG change from baseline, LS mean difference: -3.38 mg/dL
  HDL-C change from baseline, LS mean difference: -0.14 mg/dL
  HOMA-IR change from baseline, LS mean difference: −0.53
  HOMA-β change from baseline, LS mean difference: −4.99
  HbA1c change from baseline, LS mean difference: −0.04 % p
  LDL-C change from baseline, LS mean difference: 0.71 mg/dL
  Odds ratio for achieving HbA1c<6.5%: 0.40
  Odds ratio for achieving HbA1c<7%: 0.97
  Odds ratio for achieving therapeutic response: 1.30
  UACR change from baseline, LS mean difference: −6.93
  UGCR change from baseline, LS mean difference: 15.54 mg/mg
  body weight change from baseline, LS mean difference: -0.18 kg
  diastolic blood pressure change from baseline, LS mean difference: −1.15 mmHg
  fasting c-peptide change from baseline, LS mean difference: -0.06 ng/mL
  leptin change from baseline, LS mean difference: -1.12 ng/mL
  systolic blood pressure change from baseline, LS mean difference: 0.63 mmHg
  total cholesterol change from baseline, LS mean difference: 2.40 mg/dL
  triglyceride change from baseline, LS mean difference: 1.63 mg/dL
[6]
  HbA1c change from baseline, LS mean (SE): −0.80(0.06) % p
  HbA1c change from baseline, Mean (SD): −0.78(0.73) % p
  Subjects achieving HbA1c target of <7%: 61.05%
Week 24, enavogliflozin 0.3 mg vs dapagliflozin 10 mg
  Change from baseline in total cholesterol, ANCOVA LS mean difference: 2.40 mg/dL
[7]
  Change from baseline in Total cholesterol, ANCOVA LS mean (SE): 9.13(2.22) mg/dL
  Change from baseline in Total cholesterol, Mean (SD): 7.99(20.78) mg/dL
  Change from baseline in total cholesterol, Median: 11.00 mg/dL
  fasting Total cholesterol, Mean (SD): 159.42(32.17) mg/dL
  fasting Total cholesterol, Median: 157.00 mg/dL
[8]
  Change from baseline in FPG, ANCOVA LS mean difference: -3.38 mg/dL
  Change from baseline in body weight, ANCOVA LS mean difference: -0.18 kg
  Change from baseline in fasting c-peptide, ANCOVA LS mean difference: -0.06 ng/mL
  Odds ratio for achieving HbA1c target of <6.5%, logistic regression model: 0.40
  Odds ratio for achieving therapeutic glycemic response, logistic regression model: 1.30
[9]
  Change from baseline in FPG, ANCOVA LS mean (SE): -32.53 mg/dL
  Change from baseline in FPG, Mean (SD): -31.77 mg/dL
  Change from baseline in FPG, Median: -31.00 mg/dL
  Change from baseline in body weight, ANCOVA LS mean (SE): −3.77(0.33) kg
  Change from baseline in body weight, Mean (SD): −3.78(3.77) kg
  Change from baseline in body weight, Median: -3.60 kg
  Change from baseline in fasting c-peptide, ANCOVA LS mean (SE): −0.10(0.02) ng/mL
  Change from baseline in fasting c-peptide, Mean (SD): −0.10(0.16) ng/mL
  Change from baseline in fasting c-peptide, Median: -0.07 ng/mL
  FPG, Mean (SD): 113.58 mg/dL
  FPG, Median: 113.00 mg/dL
  Subjects achieving HbA1c target of <6.5%, (%): (13.68) %
  Subjects achieving therapeutic glycemic response, (%): (78.95) %
  body weight, Mean (SD): 66.39(10.90) kg
  body weight, Median: 64.40 kg
  fasting c-peptide, Mean (SD): 0.62(0.22) ng/mL
  fasting c-peptide, Median: 0.56 ng/mL
